Test results reported in paper PMC5931191, “Reversible stapling of unprotected peptides via chemoselective methionine bis-alkylation/dealkylation” (Chemical Science, 2018).

How the values were obtained:
[1] = Met bis-alkylation (bis-sulfonium staple) of one unprotected peptide with different dihalide linkers (1.2 equiv), 1% HCOOH (pH ~3), 24 h; settings: the molecule shown is the open-chain precursor, MeCN/H2O 30:70 (SI: 1:3) + 1% HCOOH, small amount of DMF, 10.0 mM, 25.0 °C
[2] = Met bis-alkylation (bis-sulfonium staple) with linker c, 1,4-bis(bromomethyl)benzene (1.2 equiv), 1% HCOOH (pH ~3), 24 h; settings: the molecule shown is the open-chain precursor, MeCN/H2O 30:70 (SI: 1:3) + 1% HCOOH, small amount of DMF, 10.0 mM, 25.0 °C
[3] = Met bis-alkylation (bis-sulfonium staple) with linker a, 1,3-bis(bromomethyl)benzene (1.2 equiv), 1% HCOOH (pH ~3), 24 h; settings: the molecule shown is the open-chain precursor, MeCN/H2O 30:70 (SI: 1:3) + 1% HCOOH, small amount of DMF, 10.0 mM, 25.0 °C
[4] = Dealkylation of cyclic peptides with 2-mercaptopyridine (regeneration of linear peptide); format: physicochemical; settings: chemical stability under reductive conditions; 2-mercaptopyridine (10 equiv., 10 mM) in PBS pH 7.4, 37 °C, different time points, HPLC / LC-MS; Fig. 3A, B
Method: in linear gradient mixtures.
1. Preparation of alkylated sulfonium peptides[1]
The alkylated reagent (1.2 equiv)
Then the solution was purified by reversed […]
peptide can be gradually regenerated to the linear peptide.
To 100 µL of each solution 1 µL […]
linear gradient from 10% to 70% acetonitrile over 15min. […]
quantified by LC/MS-based peak detection at 254nm.
4. Flow Cytometry Analysis
T47D cells were seeded in
37°C), washed with PBS, and resuspended in PBS. […]
cytometer (Becton Dickinson) and CellQuest Pro (or CFlow plus).

HeLa cells = test: Flow cytometry cellular uptake in HeLa cells; format: cell-based; settings: 10% fetal bovine serum, 5, 10, 20 µM, Fig. S5

In the case of CSCC[C@H](NC(=O)[C@H](CC(=O)O)NC(=O)CNC(=O)[C@H](CCCNC(=N)N)NC(=O)[C@H](CC[S+](C)Cc1ccc(-c2ccc(CBr)cc2)cc1)NC(=O)[C@H](Cc1c[nH]c2ccccc12)NC(C)=O)C(N)=O (some centres unmarked), the ring closure, conversion by HPLC ([1]; 29-membered ring) is reported as 60%.

CSCC[C@H](NC(=O)[C@H](CC(=O)O)NC(=O)CNC(=O)[C@H](CCCNC(=N)N)NC(=O)[C@H](CC[S+](C)Cc1nc2ccccc2nc1CBr)NC(=O)[C@H](Cc1c[nH]c2ccccc12)NC(C)=O)C(N)=O (some centres unmarked) showed a ring closure, conversion by HPLC ([1]; 23-membered ring) of 53%.

With CSCC[C@H](NC(=O)[C@H](CC(=O)O)NC(=O)CNC(=O)[C@H](CCCNC(=N)N)NC(=O)[C@H](CC(=O)O)NC(=O)CNC(=O)[C@H](CCCNC(=N)N)NC(=O)[C@H](CC[S+](C)Cc1ccc(CBr)cc1)NC(=O)[C@H](Cc1c[nH]c2ccccc12)NC(C)=O)C(N)=O (stereo partly drawn) [Ac-Trp-Met-Arg-Gly-Asp-Arg-Gly-Asp-Met-NH2] the ring closure, conversion by HPLC ([2]; 34-membered ring) was 54%.

For CSCC[C@H](NC(=O)[C@H](CC(=O)O)NC(=O)CNC(=O)[C@H](CCCNC(=N)N)NC(=O)[C@H](CC(=O)O)NC(=O)CNC(=O)[C@H](CCCNC(=N)N)NC(=O)[C@H](CC[S+](C)Cc1cccc(CBr)c1)NC(=O)[C@H](Cc1c[nH]c2ccccc12)NC(C)=O)C(N)=O (stereo partly drawn) [Ac-Trp-Met-Arg-Gly-Asp-Arg-Gly-Asp-Met-NH2], the ring closure, conversion by HPLC ([3]; 33-membered ring) was 85%.

In the case of CSCC[C@H](NC(=O)[C@H](CC(=O)O)NC(=O)CNC(=O)[C@H](CCCNC(=N)N)NC(=O)[C@H](CC[S+](C)Cc1ccccc1CBr)NC(=O)[C@H](Cc1c[nH]c2ccccc12)NC(C)=O)C(N)=O (stereo partly drawn) [Ac-Trp-Met-Arg-Gly-Asp-Met-NH2 + 1,2-bis(bromomethyl)benzene], the ring closure, conversion by HPLC ([1]; 23-membered ring) is reported as 58%.

For CSCC[C@H](NC(=O)[C@H](CC(=O)O)NC(=O)CNC(=O)[C@H](CCCNC(=N)N)NC(=O)[C@H](CC[S+](C)Cc1cccc(CBr)c1)NC(=O)[C@H](Cc1c[nH]c2ccccc12)NC(C)=O)C(N)=O (stereo partly drawn) [Ac-Trp-Met-Arg-Gly-Asp-Met-NH2 + 1,3-bis(bromomethyl)benzene], the ring closure, conversion by HPLC ([1]; 24-membered ring) was 88%.

For CSCC[C@H](NC(=O)[C@H](CC(=O)O)NC(=O)CNC(=O)[C@H](CCCNC(=N)N)NC(=O)[C@H](CC[S+](C)Cc1ccc(CBr)cc1)NC(=O)[C@H](Cc1c[nH]c2ccccc12)NC(C)=O)C(N)=O (stereo partly drawn) [Ac-Trp-Met-Arg-Gly-Asp-Met-NH2 + 1,4-bis(bromomethyl)benzene], the ring closure, conversion by HPLC ([1]; 25-membered ring) was 49%.

In the case of CSCC[C@H](NC(=O)[C@H](CC(=O)O)NC(=O)CNC(=O)[C@H](CCCNC(=N)N)NC(=O)[C@H](CC[S+](C)CC(=O)C(=O)CBr)NC(=O)[C@H](Cc1c[nH]c2ccccc12)NC(C)=O)C(N)=O (stereo partly drawn) [Ac-Trp-Met-Arg-Gly-Asp-Met-NH2 + 1,4-dibromobutane-2,3-dione], the ring closure, conversion by HPLC ([1]; 23-membered ring) is reported as 64%.

With CSCC[C@H](NC(=O)[C@H](CC(=O)O)NC(=O)CNC(=O)[C@H](CCCNC(=N)N)NC(=O)[C@H](CC[S+](C)CCCCBr)NC(=O)[C@H](Cc1c[nH]c2ccccc12)NC(C)=O)C(N)=O (stereo partly drawn) [Ac-Trp-Met-Arg-Gly-Asp-Met-NH2 + 1,4-dibromobutane] the ring closure, conversion by HPLC ([1]; 23-membered ring) was 0%.

With CSCC[C@H](NC(=O)[C@H](CC(=O)O)NC(=O)CNC(=O)[C@H](CCCNC(=N)N)NC(=O)[C@H](CC[S+](C)CCCCI)NC(=O)[C@H](Cc1c[nH]c2ccccc12)NC(C)=O)C(N)=O (stereo partly drawn) [Ac-Trp-Met-Arg-Gly-Asp-Met-NH2 + 1,4-diiodobutane] the ring closure, conversion by HPLC ([1]; 23-membered ring) was 0%.

In the case of CSCC[C@H](NC(=O)[C@H](CC(=O)O)NC(=O)CNC(=O)[C@H](CCCNC(=N)N)NC(=O)[C@H](CC[S+](C)C/C=C/CBr)NC(=O)[C@H](Cc1c[nH]c2ccccc12)NC(C)=O)C(N)=O (stereo partly drawn) [Ac-Trp-Met-Arg-Gly-Asp-Met-NH2 + (E)-1,4-dibromobut-2-ene], the ring closure, conversion by HPLC ([1]; 23-membered ring) is reported as 93%.

CSCC[C@H](NC(=O)[C@H](CC(C)C)NC(=O)[C@H](CS)NC(=O)[C@H](CC[S+](C)Cc1ccc(CBr)cc1)NC(=O)[C@H](Cc1c[nH]c2ccccc12)NC(C)=O)C(=O)N[C@@H](C)C(N)=O (stereo partly drawn) [Ac-Trp-Met-Cys-Leu-Met-Ala-NH2] gave a ring closure, conversion by HPLC ([2]; 22-membered ring) of over 95%.

For CSCC[C@H](NC(=O)[C@H](CC(C)C)NC(=O)[C@H](CS)NC(=O)[C@H](CC[S+](C)Cc1cccc(CBr)c1)NC(=O)[C@H](Cc1c[nH]c2ccccc12)NC(C)=O)C(=O)N[C@@H](C)C(N)=O (stereo partly drawn) [Ac-Trp-Met-Cys-Leu-Met-Ala-NH2], the ring closure, conversion by HPLC ([3]; 21-membered ring) was over 95%.

In the case of CSCC[C@H](NC(=O)[C@H](CC(=O)O)NC(=O)[C@@H](NC(=O)[C@H](Cc1c[nH]cn1)NC(=O)[C@H](CC[S+](C)Cc1ccc(CBr)cc1)NC(=O)[C@H](Cc1c[nH]c2ccccc12)NC(C)=O)C(C)C)C(=O)N[C@@H](C)C(N)=O (stereo partly drawn) [Ac-Trp-Met-His-Val-Asp-Met-Ala-NH2], the ring closure, conversion by HPLC ([2]; 25-membered ring) is reported as 85%.

CSCC[C@H](NC(=O)[C@H](CC(=O)O)NC(=O)[C@@H](NC(=O)[C@H](Cc1c[nH]cn1)NC(=O)[C@H](CC[S+](C)Cc1cccc(CBr)c1)NC(=O)[C@H](Cc1c[nH]c2ccccc12)NC(C)=O)C(C)C)C(=O)N[C@@H](C)C(N)=O (stereo partly drawn) [Ac-Trp-Met-His-Val-Asp-Met-Ala-NH2] gave a ring closure, conversion by HPLC ([3]; 24-membered ring) of 73%.

For CSCC[C@H](NC(=O)[C@H](CCC(=O)O)NC(=O)[C@H](CCCCN)NC(=O)[C@H](CC[S+](C)Cc1ccc(CBr)cc1)NC(=O)[C@H](Cc1c[nH]c2ccccc12)NC(C)=O)C(=O)N[C@@H](C)C(N)=O (stereo partly drawn) [Ac-Trp-Met-Lys-Glu-Met-Ala-NH2], the ring closure, conversion by HPLC ([2]; 22-membered ring) was 73%.

CSCC[C@H](NC(=O)[C@H](CCC(=O)O)NC(=O)[C@H](CCCCN)NC(=O)[C@H](CC[S+](C)Cc1cccc(CBr)c1)NC(=O)[C@H](Cc1c[nH]c2ccccc12)NC(C)=O)C(=O)N[C@@H](C)C(N)=O (stereo partly drawn) [Ac-Trp-Met-Lys-Glu-Met-Ala-NH2] gave a ring closure, conversion by HPLC ([3]; 21-membered ring) of 85%.

For CC[C@H](C)[C@H](NC(=O)[C@H](CCCCN)NC(=O)[C@H](CC[S+](C)Cc1ccc(CBr)cc1)NC(=O)[C@H](Cc1c[nH]c2ccccc12)NC(C)=O)C(=O)N[C@@H](CCC(=O)O)C(=O)N[C@@H](CCSC)C(=O)N[C@@H](C)C(N)=O (stereo partly drawn) [Ac-Trp-Met-Lys-Ile-Glu-Met-Ala-NH2], the ring closure, conversion by HPLC ([2]; 25-membered ring) was 83%.

For CC[C@H](C)[C@H](NC(=O)[C@H](CCCCN)NC(=O)[C@H](CC[S+](C)Cc1cccc(CBr)c1)NC(=O)[C@H](Cc1c[nH]c2ccccc12)NC(C)=O)C(=O)N[C@@H](CCC(=O)O)C(=O)N[C@@H](CCSC)C(=O)N[C@@H](C)C(N)=O (stereo partly drawn) [Ac-Trp-Met-Lys-Ile-Glu-Met-Ala-NH2], the ring closure, conversion by HPLC ([3]; 24-membered ring) was 77%.

In the case of CSCC[C@H](NC(=O)[C@H](Cc1c[nH]cn1)NC(=O)[C@@H]1CCCN1C(=O)[C@H](CC[S+](C)Cc1ccc(CBr)cc1)NC(=O)[C@H](Cc1c[nH]c2ccccc12)NC(C)=O)C(=O)N[C@@H](C)C(N)=O (stereo partly drawn) [Ac-Trp-Met-Pro-His-Met-Ala-NH2], the ring closure, conversion by HPLC ([2]; 22-membered ring) is reported as 74%.

Compound CSCC[C@H](NC(=O)[C@H](Cc1c[nH]cn1)NC(=O)[C@@H]1CCCN1C(=O)[C@H](CC[S+](C)Cc1cccc(CBr)c1)NC(=O)[C@H](Cc1c[nH]c2ccccc12)NC(C)=O)C(=O)N[C@@H](C)C(N)=O (stereo partly drawn) [Ac-Trp-Met-Pro-His-Met-Ala-NH2] has a ring closure, conversion by HPLC ([3]; 21-membered ring) of 84%.

CSCC[C@H](NC(=O)CNC(=O)[C@H](Cc1ccc(O)cc1)NC(=O)[C@@H]1CCCN1C(=O)[C@H](CC[S+](C)Cc1ccc(CBr)cc1)NC(=O)[C@H](Cc1c[nH]c2ccccc12)NC(C)=O)C(=O)N[C@@H](C)C(N)=O (stereo partly drawn) [Ac-Trp-Met-Pro-Tyr-Gly-Met-Ala-NH2] showed a ring closure, conversion by HPLC ([2]; 25-membered ring) of 81%.

For CSCC[C@H](NC(=O)CNC(=O)[C@H](Cc1ccc(O)cc1)NC(=O)[C@@H]1CCCN1C(=O)[C@H](CC[S+](C)Cc1cccc(CBr)c1)NC(=O)[C@H](Cc1c[nH]c2ccccc12)NC(C)=O)C(=O)N[C@@H](C)C(N)=O (stereo partly drawn) [Ac-Trp-Met-Pro-Tyr-Gly-Met-Ala-NH2], the ring closure, conversion by HPLC ([3]; 24-membered ring) was 70%.

In the case of “Ac-W-(cyclo-c)-MRGDM-NH2 (sidechain bridge or staple) [1c, peptide 1 Met bis-alkylated with linker c]”, the “regeneration of the parental linear peptide 1 (dealkylation)” value [4] is reported as “time-dependent regeneration of the parental peptide 1”.

In the case of “FITC-βA-(cyclo-a)-MRRRM-NH2 (sidechain bridge or staple) [11a, peptide 11 cyclized using linker a]”, the “cellular uptake efficiency (flow cytometry) in the presence of serum” value (HeLa cells) is reported as “same tendency as in the absence of serum”.

With “FITC-βA-(cyclo-i)-MRRRM-NH2 (sidechain bridge or staple) [11i, peptide 11 cyclized using linker i]” the “cellular uptake efficiency (flow cytometry) in the presence of serum” value (HeLa cells) was “same tendency as in the absence of serum”.
